Source: article PMC6193938, “Characterization of a novel AICARFT inhibitor which potently elevates ZMP and has anti-tumor activity in murine models” (Scientific Reports, 2018)
Like-named read-outs stand apart in the source and are kept apart here.

Tested on: panel of human cell lines
Test: In vitro proliferation assay, Cell Titer Glo, two doubling times, 298 cell lines
Type: cell-based
Conditions: Homo sapiens, read-out: ABS_IC50_VALUE
From the text: Cell Titer Glo measures ATP, thus the IC50s represent both the effect on purine production and cell proliferation, which are related. […] Folates are actively taken up in cells by reduced folate carrier (SLC19A1), proton-coupled folate transporter (SLC46A1), and the FOLR1 folate receptor[17]. Once inside the cell, folates are trapped by polyglutamation catalyzed by folylpolyglutamate synthetase (FPGS). […] Gene expression data for ATIC, GART, APRT, HPRT, FOLR1, SLC19A1, SLC46A1 & FPGS are shown in Fig. 2, since these genes were anticipated to predict sensitivity. […] The MDA-MB-231 cell line is reduced folate carrier (SLC19A1) negative due to epigenetic silencing.
Cells were cultured using recommended culture conditions unless noted otherwise (Supplemental Table 3). Cells were plated, dosed with compound and incubated at 37 °C for approximately 2 doubling times as determined for each cell line. Cell Titer Glo (Promega) assay was used to measure proliferation according to manufacturer’s recommendations by measuring luminescence with Flexstation3 (Molecular Devices) with 500 ms integration time. […] The % response was fit to a four-parameter logistic equation using ACTIVITYBASE 4.0 to determine the absolute IC50 values.
Cell Lines: Cell lines of adrenal gland, autonomic ganglia, biliary tract, blood ALL, blood AML, blood CML, blood hodgkin lymphoma, blood lymphoma, blood multiple myeloma, blood NHL, blood RAEB, bone, breast ER+, breast fibroblast, breast fibroblast mixed, breast HER2, breast normal, breast triple negative, cervix, CNS, endometrium, eye, fibroblast normal, kidney ns, kidney renal, large intestine, liver, liver normal, lung adenocarcinoma, lung ns, lung NSCLC, lung NSCLC mixed, lung SCLC, lung squamous, melanoma, melanoma normal, esophagus adenocarcinoma, esophagus ns, esophagus squamous, ovary, pancreas adenocarcinoma, pancreas ductal carcinoma, pancreas ns, pleura mesothelioma, prostate adenocarcinoma, prostate small cell, salivary gland, small intestine, soft tissue, stomach, testis, thyroid, thyroid squamous, umbilical vein endothelial cell normal, upper aerodigestive tract squamous, urinary tract ns, urinary tract transitional cell carcinoma, and vulva squamous origin were obtained from ATCC, CASTCC, CLS, DSMZ, ECACC, HSRRB, ICLC, JCRB, NCI, Riken and SNU cell banks. The murine A9 cell line was acquired from the ATCC (CCL-1.4).

## O=c1[nH]ccc2cc(F)c(NS(=O)(=O)c3ccc(N4CC[C@@H](O)C4)s3)cc12 [LSN3213128, N-(6-Fluoro-1-oxo-1,2-dihydroisoquinolin-7-yl)-5-[(3R)-3-hydroxypyrrolidin-1-yl]thiophene-2-sulfonamide]
NCI-H661, NCI-H661, lung
  IC50: 16.2 µM
NCI-H716, NCI-H716, large intestine
  IC50: 1.34 µM
NCI-H929, NCI-H929, haematopoietic and lymphoid tissue
  IC50: > 20 µM
NCI-H1048, NCI-H1048, lung
  IC50: > 20 µM
NCI-H1092, NCI-H1092, lung
  IC50: > 20 µM
NCI-H1105, lung
  IC50: > 20 µM
NCI-H1155, NCI-H1155, lung
  IC50: 13.6 µM
NCI-H1299, NCI-H1299, lung
  IC50: 1.32 µM
NCI-H1341, lung
  IC50: 2.83 µM
NCI-H1355, NCI-H1355, lung
  IC50: > 20 µM
NCI-H1395, NCI-H1395, lung
  IC50: 12.6 µM
NCI-H1435, NCI-H1435, lung
  IC50: > 20 µM
NCI-H1437, NCI-H1437, lung
  IC50: 1.37 µM
NCI-H1573, NCI-H1573, lung
  IC50: > 20 µM
NCI-H1581, NCI-H1581, lung
  IC50: 16.5 µM
NCI-H1618, lung
  IC50: > 20 µM
NCI-H1623, NCI-H1623, lung
  IC50: > 20 µM
NCI-H1648, NCI-H1648, lung
  IC50: > 20 µM
NCI-H1650, NCI-H1650, lung
  IC50: 8.18 µM
NCI-H1651, NCI-H1651, lung
  IC50: > 20 µM
NCI-H1666, NCI-H1666, lung
  IC50: > 20 µM
NCI-H1694, NCI-H1694, lung
  IC50: > 20 µM
NCI-H1703, NCI-H1703, lung
  IC50: > 20 µM
NCI-H1734, NCI-H1734, lung
  IC50: > 20 µM
NCI-H1781, NCI-H1781, lung
  IC50: > 20 µM
NCI-H1792, NCI-H1792, lung
  IC50: 8.57 µM
NCI-H1793, NCI-H1793, lung
  IC50: > 20 µM
NCI-H1836, NCI-H1836, lung
  IC50: 2.47 µM
NCI-H1838, NCI-H1838, lung
  IC50: > 20 µM
NCI-H1876, lung
  IC50: > 20 µM
NCI-H1930, NCI-H1930, lung
  IC50: 17.8 µM
NCI-H1944, NCI-H1944, lung
  IC50: > 20 µM
NCI-H1975, NCI-H1975, lung
  IC50: 2.15 µM
NCI-H2009, NCI-H2009, lung
  IC50: > 20 µM
NCI-H2023, NCI-H2023, lung
  IC50: > 20 µM
NCI-H2029, NCI-H2029, lung
  IC50: > 20 µM
NCI-H2030, NCI-H2030, lung
  IC50: 8.19 µM
NCI-H2052, NCI-H2052, pleura
  IC50: > 20 µM
NCI-H2066, NCI-H2066, lung
  IC50: > 20 µM
NCI-H2081, NCI-H2081, lung
  IC50: > 20 µM
NCI-H2085, lung
  IC50: > 20 µM
NCI-H2087, NCI-H2087, lung
  IC50: > 20 µM
NCI-H2122, NCI-H2122, lung
  IC50: 1.22 µM
NCI-H2126, NCI-H2126, lung
  IC50: > 20 µM
NCI-H2170, NCI-H2170, lung
  IC50: 13.7 µM
NCI-H2171, NCI-H2171, lung
  IC50: > 20 µM
NCI-H2227, lung
  IC50: > 20 µM
NCI-H2228, NCI-H2228, lung
  IC50: 7.07 µM
NCI-H2286, NCI-H2286, lung
  IC50: 17.6 µM
NCI-H2347, NCI-H2347, lung
  IC50: > 20 µM
NCI-H2405, NCI-H2405, lung
  IC50: > 20 µM
NCI-H2452, NCI-H2452, pleura
  IC50: > 20 µM
NCI-N87, NCI-N87, stomach
  IC50: 2.39 µM
NCI-SNU-5, stomach
  IC50: > 20 µM
NCI-SNU-16, stomach
  IC50: 1.18 µM
NH-6, autonomic ganglia
  IC50: > 20 µM
NMC-G1, central nervous system
  IC50: > 20 µM
NOMO-1, NOMO-1, haematopoietic and lymphoid tissue
  IC50: 2.03 µM
NUGC-3, NUGC-3, stomach
  IC50: 11.9 µM
NUGC-4, NUGC-4, stomach
  IC50: 8.38 µM
OCUM1, OCUM-1, stomach
  IC50: 16.5 µM
OE19, OE19, oesophagus
  IC50: 6.52 µM
OE33, OE33, oesophagus
  IC50: 12.7 µM
ONS-76, ONS-76, central nervous system
  IC50: 3.6 µM
OVCAR-3, OVCAR-3, ovary
  IC50: 12.7 µM
OVMANA, ovary
  IC50: 2.59 µM
P31-FUJ, haematopoietic and lymphoid tissue
  IC50: 0.71 µM
PC-3, prostate
  IC50: > 20 µM
PF-382, PF-382, haematopoietic and lymphoid tissue
  IC50: 2.13 µM
Panc 04.03, Panc 04.03, pancreas
  IC50: 5.44 µM
Pfeiffer, haematopoietic and lymphoid tissue
  IC50: 2.55 µM
QGP-1, QGP-1, pancreas
  IC50: 10.7 µM
RD, soft tissue
  IC50: 9.13 µM
RD-ES, bone
  IC50: 8.54 µM
